We go through 11 molecules from ChEMBL document CHEMBL1201862, “PubChem BioAssay data set” (2004).

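Each compound was tested at five concentrations against cells in 96-well plates for 48 hours. GI50 = concentration required for 50% inhibition of growth.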 Activity calls are given as the source filed them. No stated cut-off is given here; in the data, active = GI50 up to about 1.1 µM and inactive = higher. Where only a bound is given, the exact number is not on record here.

Holding throughout (assay): NCI-60 cell line screen, 48 h
Assay [1] deals with DLD-1.
In assay [2] the test system is SF-295.
In assay [3] the test system is 786-0.
Assay [4] has as its system SK-MEL-5.
For assay [5], the system named is SF-268.
Assay [6] has as its system OVCAR-4.
In assay [7] the test system is UACC-62.
In assay [8] the test system is MOLT-4.
Assay [9] concerns SNB-75.
The subject of assay [10] is SN12C.
In assay [11] the test system is Malme-3M.
The subject of assay [12] is U-251.
For assay [13], the system named is NCI-H226.
Assay [14] relates to CCRF-CEM.
Assay [15] relates to HCC 2998.
Assay [16] has as its system SK-OV-3.
Assay [17] relates to SNB-19.
The subject of assay [18] is COLO 205.

For the molecule `CC1=C(SC#N)S(=O)(=O)N(c2ccccc2)C(C)=C1SC#N`, the GI50 was 33.3 µM (inactive) in assay [1]; 22.6 µM (inactive) in [2]; 49.4 µM (inactive) in assay [3]; 42 µM (inactive) in assay [4]; 69.2 µM (inactive) in [5]; 33.3 µM (inactive) in assay [6]. For the same molecule, the GI50 in [7] was 30.1 µM (inactive); in [8], 20 µM (inactive); in [9], 27 µM (inactive); in assay [10], 56.6 µM (inactive); in assay [11], > 100 µM (inactive); in assay [12] it was 16.9 µM (inactive). Also, the GI50 was 36.2 µM (inactive) in [13]; 17.5 µM (inactive) in assay [14]; > 100 µM (inactive) in assay [15]; 38.2 µM (inactive) in assay [16]; 25.1 µM (inactive) in [17].

Turning to `CCOC(=O)[C@H]1Nc2ccc([N+](=O)[O-])cc2C2c3ccccc3CC21` (stereo partly drawn), the GI50 was 25.4 µM (inactive) in [1]; 11.2 µM (inactive) in [2]; 19.7 µM (inactive) in assay [3]; 13.1 µM (inactive) in [4]; 16.5 µM (inactive) in assay [5]; 18.4 µM (inactive) in [6]. The GI50 in [7] was 12.2 µM (inactive); in assay [8], 5.12 µM (inactive); in assay [9], 26 µM (inactive); in [10] it was 15.5 µM (inactive); in assay [11] it was 19 µM (inactive); in [12], 16.1 µM (inactive). Also, the GI50 in assay [13] was 19.1 µM (inactive); in [14], 0.337 µM (active); in assay [15], 21.3 µM (inactive); in assay [17], 28.4 µM (inactive); in [18], 30.9 µM (inactive).

Turning to `O=C(Nc1ccc(Sc2ccc(/N=N/c3c(O)c(S(=O)(=O)O)cc4cc(S(=O)(=O)O)ccc34)cc2)cc1)c1ccc(/N=N/c2c(O)ccc3c(S(=O)(=O)O)cc(S(=O)(=O)O)cc23)cc1`, the GI50 in assay [1] is 37.7 µM (inactive); in assay [2] it was 62.7 µM (inactive); in assay [3] it was 37.6 µM (inactive); in assay [4] it was 7.5 µM (inactive); in assay [5], 41 µM (inactive); in assay [6] it was 33.8 µM (inactive). The GI50 in assay [7] is 16.9 µM (inactive); in assay [8], 12.8 µM (inactive); in assay [9], > 100 µM (inactive); in assay [10] it was 42.2 µM (inactive); in assay [11], 24.9 µM (inactive); in [12] it was 41.2 µM (inactive). The GI50 was > 100 µM (inactive) in assay [13]; 24.7 µM (inactive) in assay [14]; > 100 µM (inactive) in assay [15]; > 100 µM (inactive) in [16]; 41.1 µM (inactive) in [17]; 15.8 µM (inactive) in [18].

Consider `CCOC(=O)C1Cc2ccc3c4c(ccc(c24)C1)CC(C(=O)OCC)C3`, for which the GI50 in assay [1], in [2], in assay [3], in [4], in [5] and in [7] was > 100 µM (inactive) in each case. In addition, the GI50 in [8], in assay [9], in assay [10], in assay [11], in assay [12] and in assay [13] was > 100 µM (inactive) each time. Moreover, the GI50 in [14], in [15], in [16], in assay [17] and in assay [18] was > 100 µM (inactive) in each case.

For the molecule `COc1ccc(CNc2cc(OC)c(OC)c(OC)c2)cc1`, the GI50 is 5.66 µM (inactive) in [1]; 4.18 µM (inactive) in [2]; 12.2 µM (inactive) in assay [3]; 3.35 µM (inactive) in [4]; 3.43 µM (inactive) in assay [5]; 12.4 µM (inactive) in assay [6]. Moreover, the GI50 in assay [7] was 3.32 µM (inactive); in assay [8], 3.98 µM (inactive); in [9] it was 5.57 µM (inactive); in [10] it was 7.71 µM (inactive); in assay [11], 7.03 µM (inactive); in assay [12] it was 3.78 µM (inactive). The GI50 is 7.5 µM (inactive) in [13]; 4.48 µM (inactive) in assay [14]; 6.32 µM (inactive) in assay [15]; 5.65 µM (inactive) in [16]; 6.85 µM (inactive) in [17]; 2.84 µM (inactive) in assay [18].

Consider `Cc1cc2occ(C)c(=O)c2c2c1OC(C)(C)S2`, for which the GI50 in assay [1], in assay [2], in [3], in assay [4], in [5] and in assay [6] was > 100 µM (inactive) each time. Moreover, the GI50 in [7] is > 100 µM (inactive); in assay [8] it was 37.3 µM (inactive); in assay [9], 88.5 µM (inactive); in [10] it was > 100 µM (inactive); in assay [11] it was > 100 µM (inactive); in assay [12] it was > 100 µM (inactive). Further, the GI50 in assay [13] is > 100 µM (inactive); in [14] it was 51.1 µM (inactive); in assay [15] it was > 100 µM (inactive); in [16] it was > 100 µM (inactive); in [17] it was > 100 µM (inactive); in [18], > 100 µM (inactive).

Consider `CCOC(=O)C1=C(Nc2ccccc2)SC/C1=N\NC(=O)Cc1ccccc1`, for which the GI50 in assay [1], in assay [2], in assay [3], in [4], in [5] and in assay [6] was > 100 µM (inactive) each time. Also, the GI50 in assay [7], in assay [8], in [9], in assay [10], in [11] and in [12] was > 100 µM (inactive) in each case. For the same molecule, the GI50 in [13], in assay [14], in [15], in [16], in assay [17] and in assay [18] was > 100 µM (inactive) throughout.

In the case of `COc1ccc(/C=N/N=C(\N)NO)c(OC)c1C`, the GI50 is 29 µM (inactive) in assay [1]; 21.1 µM (inactive) in [2]; 16.1 µM (inactive) in [3]; 15.4 µM (inactive) in assay [5]; 22.9 µM (inactive) in assay [6]; 16.3 µM (inactive) in assay [7]. Also, the GI50 in assay [8] is 22.2 µM (inactive); in [10] it was 26 µM (inactive); in assay [11], 16.3 µM (inactive); in assay [12], 45.1 µM (inactive); in assay [13], 15.2 µM (inactive); in [14] it was 29.9 µM (inactive). The GI50 in assay [15] was 7.08 µM (inactive); in assay [16], 34.4 µM (inactive); in assay [17], 65.2 µM (inactive); in assay [18] it was 10.2 µM (inactive).

For `O=C1CCC2(O)c3ccccc3C2Cc2ccccc21` (stereo not drawn), the GI50 in assay [1], in assay [2], in assay [3], in assay [5], in assay [7] and in assay [8] was > 100 µM (inactive) each time. Also, the GI50 in [9] is 63.8 µM (inactive); in assay [10] it was > 100 µM (inactive); in assay [11] it was > 100 µM (inactive); in [12] it was > 100 µM (inactive); in assay [13], > 100 µM (inactive); in assay [14], > 100 µM (inactive). For the same molecule, the GI50 in [15], in assay [17] and in [18] was > 100 µM (inactive) each time.

As to `COc1ccc(CN(O)C2C(CO)OC(n3cc(I)c(=O)[nH]c3=O)C2O)cc1` (stereo not drawn), the GI50 in [1], in assay [2], in assay [3], in assay [4], in [5] and in assay [6] was > 100 µM (inactive) throughout. The GI50 in [7], in [8], in assay [9], in [10], in [11] and in [12] was > 100 µM (inactive) in each case. In addition, the GI50 in [14], in assay [15], in assay [16], in assay [17] and in assay [18] was > 100 µM (inactive) throughout.

For `O=C1CCN2CCC(=O)c3c2c(cc2ccccc32)N1`, the GI50 in [1], in assay [2], in [3], in assay [4], in assay [5] and in assay [7] was > 100 µM (inactive) throughout. The GI50 in [8], in assay [9], in [10], in assay [11], in assay [12] and in assay [13] was > 100 µM (inactive) in each case. The GI50 in assay [14], in assay [15], in assay [16], in assay [17] and in assay [18] was > 100 µM (inactive) in each case.
